Source: ChEMBL document CHEMBL1151287, “Discorhabdin W, the first dimeric discorhabdin” (J Nat Prod, 2005)

The compounds below were run on P388 (assay: Cytotoxicity against mouse P388 cells).
Assay type: functional, cell-based

Q: With `O=C1C=C[C@@]23C[C@@H](NC4=C2C2=NCCc5c[nH]c(c52)C4=O)SC3=C1` as the compound, how does the IC50 read?
A: 0.51 µM

Q: For `O=C1C=C(SSC2=CC(=O)C(Br)=C[C@]23C=CNC2=C3C3=NCCc4c[nH]c(c43)C2=O)[C@@]2(C=CNC3=C2C2=NCCc4c[nH]c(c42)C3=O)C=C1Br` [DISCORHABDIN W], which IC50 is on record?
A: 0.084 µM

Q: How did the IC50 turn out when `O=C1C2=C3C4=[N+](CCc5c[nH]c1c54)[C@@H]1C(=O)C=C4S[C@@H](C[C@@]43[C@H]1O)N2` [DISCORHABDIN L] was run?
A: 1.1 µM

Q: How did the IC50 turn out when `O=C1C=C2S[C@H]3C[C@]2(C=C1Br)C1=C(N3)C(=O)c2[nH]cc3c2C1=NCC3` [DISCORHABDIN B] was run?
A: 0.087 µM

Q: With `O=C1C2=C3C4=[N+](CCc5c[nH]c1c54)[C@H]1C[C@@]34C[C@@H](N2)SC4=CC1=O` [DISCORHABDIN D] as the compound, how does the IC50 read?
A: 1.6 µM
